Results taken from patent US20230277669A1, “USES OF UROLITHINS” (Amazentis SA, priority 2022, published 2023).

System: T cells
Assay: RNA sequencing of T cells exposed to DMSO or UA
Type: cell-based
Details: 48 hours
Protocol: (FIG. 5B) RNAseq expression heatmap of selected genes: Genes associated with immune checkpoints, effector molecules and genes encoding for leukocyte migration. (FIG. 5C) Expression of genes associated with T cell memory vs effector fate decisions. Data underwent z-score normalization for display (n=3 per group). […] T cells were stimulated for 48 h in vitro at the presence of the indicated treatments. Data are mean ± SD (n=4/4/3), statistical analysis was performed by two-sided t-test (p***<0.01; p****0.0001). (FIG. 5E) Quantification of TSCM formation within CD8+ cells after 48 h of in vitro stimulation under various treatment conditions, including TCF1 inhibition by ICG001 (DMSO, UA, TCF1i n=4; TCFi+UA n=3). Data are mean ± SD, statistical analysis was performed by two-sided t-test (*p < 0.05; n.s. not significant). One of two independent experiments are shown. (FIG. 5F) Western blot analysis of β-Catenin phosphorylation status in CD3+ cells stimulated via plate-bound aCD3/aCD28 antibodies for 6h. N=3 per group. (FIG. 5G) Cytosolic fractionation of CD3+ cells stimulated for six hours in the presence of Urolithin or DMSO control (c= cytosolic, m = mitochondrial fraction). Experiment was repeated twice.
(FIG. 8A) Ingenuity pathway upstream regulator analysis of UA treated T cells. Assessed from RNAseq data. Plausible upregulation is depicted by z score, significance is shown on the overlying dot spot. Genes with a log2 fold change of 1 and p<0.05 were initially considered.
To explore the downstream events linking mitophagy to TSCM formation, we performed RNA sequencing to globally assess differential gene expression in T cells exposed for 48 hours to either DMSO or UA in vitro. […] Indeed, when we applied ICG001 to pharmacologically block TCF-1, UA-induced TSCM formation in vitro was abrogated (FIGS. 5D-E).

Structure (SMILES): O=c1oc2cc(O)ccc2c2ccc(O)cc12 [Urolithin A]
- effector fate associated genes Prdm1 and Id2: reduced expression
- expression of Cd27, Ccr7 and adhesion genes: enhancing expression
- expression of genes coding for immune checkpoints and effector molecules: reduced the expression
- genes involved in memory formation (Tcf7, Bach2, Bcl6): special enrichment
